Test results published in publication PMC3914206.

Key:
Assay type in all cases: binding
Settings in all cases: Compound Concentration 10 µM
panel of 442 kinases [1] = biological target: T1, panel of 442 kinases (Homo sapiens, UniProt Q9P0L2)
T1 construct: purchased KINOMEscan
Text: (§1) We assessed the selectivity of members of this scaffold using the KINOMEscan methodology across a near comprehensive panel of 442 kinases [[18,27]].

panel of 442 kinases [2] = biological target: T2, panel of 442 kinases (Homo sapiens, UniProt P42336, H1047Y)
T2 construct: purchased KINOMEscan
Text: as §1

panel of 442 kinases [3] = biological target: T3, panel of 442 kinases (Homo sapiens, UniProt P06213)
T3 construct: purchased KINOMEscan
Text: as §1

panel of 442 kinases [4] = biological target: T4, panel of 442 kinases (Homo sapiens, UniProt P08581)
T4 construct: purchased KINOMEscan
Text: as §1

T2 sequence (P42336 whole entry H1047Y): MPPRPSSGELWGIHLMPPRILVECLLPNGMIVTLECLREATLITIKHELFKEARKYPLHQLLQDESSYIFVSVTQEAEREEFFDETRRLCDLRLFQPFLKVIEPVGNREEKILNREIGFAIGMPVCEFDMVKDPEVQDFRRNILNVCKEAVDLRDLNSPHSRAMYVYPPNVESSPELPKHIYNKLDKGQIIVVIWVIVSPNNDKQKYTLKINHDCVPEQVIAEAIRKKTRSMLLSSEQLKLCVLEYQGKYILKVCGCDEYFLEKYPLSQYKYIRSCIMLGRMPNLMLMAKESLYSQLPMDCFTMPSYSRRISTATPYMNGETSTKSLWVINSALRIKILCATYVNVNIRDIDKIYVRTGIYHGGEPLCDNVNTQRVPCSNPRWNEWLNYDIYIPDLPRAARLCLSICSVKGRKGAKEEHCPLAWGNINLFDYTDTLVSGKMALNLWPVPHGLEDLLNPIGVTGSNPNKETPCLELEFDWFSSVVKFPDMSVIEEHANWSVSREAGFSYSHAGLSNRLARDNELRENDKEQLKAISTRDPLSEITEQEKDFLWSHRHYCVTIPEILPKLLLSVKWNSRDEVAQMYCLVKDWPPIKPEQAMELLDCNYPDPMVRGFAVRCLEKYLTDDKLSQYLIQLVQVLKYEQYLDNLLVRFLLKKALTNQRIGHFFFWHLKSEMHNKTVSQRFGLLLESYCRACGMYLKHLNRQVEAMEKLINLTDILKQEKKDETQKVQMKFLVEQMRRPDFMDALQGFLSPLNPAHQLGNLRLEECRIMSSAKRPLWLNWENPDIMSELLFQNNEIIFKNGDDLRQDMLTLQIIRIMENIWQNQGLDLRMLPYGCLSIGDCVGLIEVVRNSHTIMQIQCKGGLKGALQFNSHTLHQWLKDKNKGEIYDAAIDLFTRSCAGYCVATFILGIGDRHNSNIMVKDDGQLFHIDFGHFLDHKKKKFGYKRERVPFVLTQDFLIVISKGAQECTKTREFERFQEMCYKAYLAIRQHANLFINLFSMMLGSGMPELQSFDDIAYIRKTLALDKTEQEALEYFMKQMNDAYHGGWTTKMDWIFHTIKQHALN
T1 sequence (Q9P0L2 whole entry): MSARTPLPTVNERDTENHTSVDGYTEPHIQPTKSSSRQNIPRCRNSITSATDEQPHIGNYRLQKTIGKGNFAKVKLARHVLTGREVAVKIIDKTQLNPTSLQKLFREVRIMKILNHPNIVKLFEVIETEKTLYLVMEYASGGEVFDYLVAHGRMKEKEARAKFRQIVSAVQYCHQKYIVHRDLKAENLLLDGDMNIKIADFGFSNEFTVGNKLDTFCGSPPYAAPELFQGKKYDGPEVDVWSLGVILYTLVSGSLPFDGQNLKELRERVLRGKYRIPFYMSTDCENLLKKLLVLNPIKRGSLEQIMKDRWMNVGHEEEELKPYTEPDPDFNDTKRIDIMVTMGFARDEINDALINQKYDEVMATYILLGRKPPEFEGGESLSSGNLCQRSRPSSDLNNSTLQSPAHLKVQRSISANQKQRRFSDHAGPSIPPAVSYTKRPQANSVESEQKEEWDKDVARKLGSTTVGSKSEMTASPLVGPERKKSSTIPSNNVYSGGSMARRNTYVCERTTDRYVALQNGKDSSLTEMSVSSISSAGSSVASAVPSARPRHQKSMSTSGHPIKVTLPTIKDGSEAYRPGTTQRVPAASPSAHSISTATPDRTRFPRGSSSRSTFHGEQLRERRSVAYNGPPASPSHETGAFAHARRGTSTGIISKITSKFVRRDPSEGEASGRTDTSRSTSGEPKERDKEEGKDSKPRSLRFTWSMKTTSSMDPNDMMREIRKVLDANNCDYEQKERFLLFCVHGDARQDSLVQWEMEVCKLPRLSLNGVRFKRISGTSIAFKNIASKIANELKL
T3 sequence (P06213 28-1382): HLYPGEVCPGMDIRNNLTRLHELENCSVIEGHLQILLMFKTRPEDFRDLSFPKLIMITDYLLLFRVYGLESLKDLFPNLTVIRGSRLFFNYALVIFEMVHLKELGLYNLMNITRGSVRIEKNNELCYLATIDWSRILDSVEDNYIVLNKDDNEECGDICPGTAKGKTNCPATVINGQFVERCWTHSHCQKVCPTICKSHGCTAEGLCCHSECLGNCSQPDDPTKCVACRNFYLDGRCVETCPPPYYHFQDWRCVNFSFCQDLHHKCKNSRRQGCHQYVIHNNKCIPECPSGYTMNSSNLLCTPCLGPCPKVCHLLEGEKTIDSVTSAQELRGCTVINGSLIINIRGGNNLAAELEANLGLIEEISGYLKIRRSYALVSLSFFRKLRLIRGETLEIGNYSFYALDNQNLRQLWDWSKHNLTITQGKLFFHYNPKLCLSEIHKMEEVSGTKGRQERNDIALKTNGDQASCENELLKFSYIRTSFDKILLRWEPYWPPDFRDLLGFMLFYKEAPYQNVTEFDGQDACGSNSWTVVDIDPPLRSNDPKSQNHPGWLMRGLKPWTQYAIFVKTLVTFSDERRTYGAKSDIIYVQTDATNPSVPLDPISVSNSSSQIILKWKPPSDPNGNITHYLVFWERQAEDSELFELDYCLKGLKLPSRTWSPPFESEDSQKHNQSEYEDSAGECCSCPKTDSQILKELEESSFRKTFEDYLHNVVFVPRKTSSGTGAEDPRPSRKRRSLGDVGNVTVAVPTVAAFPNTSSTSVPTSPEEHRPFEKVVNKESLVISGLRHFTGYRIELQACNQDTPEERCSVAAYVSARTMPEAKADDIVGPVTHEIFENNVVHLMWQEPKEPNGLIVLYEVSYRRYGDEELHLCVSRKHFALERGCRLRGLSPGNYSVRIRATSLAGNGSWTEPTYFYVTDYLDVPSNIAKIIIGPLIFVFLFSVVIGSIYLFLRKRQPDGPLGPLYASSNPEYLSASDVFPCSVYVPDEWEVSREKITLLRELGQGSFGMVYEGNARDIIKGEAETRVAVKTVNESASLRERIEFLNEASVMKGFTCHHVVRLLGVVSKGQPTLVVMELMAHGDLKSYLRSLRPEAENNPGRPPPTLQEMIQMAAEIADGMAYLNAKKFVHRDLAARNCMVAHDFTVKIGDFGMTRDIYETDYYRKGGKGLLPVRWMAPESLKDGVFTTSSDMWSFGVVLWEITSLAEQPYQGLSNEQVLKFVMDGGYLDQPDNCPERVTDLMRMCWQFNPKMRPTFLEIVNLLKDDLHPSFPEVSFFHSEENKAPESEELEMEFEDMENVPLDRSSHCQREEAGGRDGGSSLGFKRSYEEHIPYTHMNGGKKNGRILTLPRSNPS
T4 sequence (P08581 25-1390): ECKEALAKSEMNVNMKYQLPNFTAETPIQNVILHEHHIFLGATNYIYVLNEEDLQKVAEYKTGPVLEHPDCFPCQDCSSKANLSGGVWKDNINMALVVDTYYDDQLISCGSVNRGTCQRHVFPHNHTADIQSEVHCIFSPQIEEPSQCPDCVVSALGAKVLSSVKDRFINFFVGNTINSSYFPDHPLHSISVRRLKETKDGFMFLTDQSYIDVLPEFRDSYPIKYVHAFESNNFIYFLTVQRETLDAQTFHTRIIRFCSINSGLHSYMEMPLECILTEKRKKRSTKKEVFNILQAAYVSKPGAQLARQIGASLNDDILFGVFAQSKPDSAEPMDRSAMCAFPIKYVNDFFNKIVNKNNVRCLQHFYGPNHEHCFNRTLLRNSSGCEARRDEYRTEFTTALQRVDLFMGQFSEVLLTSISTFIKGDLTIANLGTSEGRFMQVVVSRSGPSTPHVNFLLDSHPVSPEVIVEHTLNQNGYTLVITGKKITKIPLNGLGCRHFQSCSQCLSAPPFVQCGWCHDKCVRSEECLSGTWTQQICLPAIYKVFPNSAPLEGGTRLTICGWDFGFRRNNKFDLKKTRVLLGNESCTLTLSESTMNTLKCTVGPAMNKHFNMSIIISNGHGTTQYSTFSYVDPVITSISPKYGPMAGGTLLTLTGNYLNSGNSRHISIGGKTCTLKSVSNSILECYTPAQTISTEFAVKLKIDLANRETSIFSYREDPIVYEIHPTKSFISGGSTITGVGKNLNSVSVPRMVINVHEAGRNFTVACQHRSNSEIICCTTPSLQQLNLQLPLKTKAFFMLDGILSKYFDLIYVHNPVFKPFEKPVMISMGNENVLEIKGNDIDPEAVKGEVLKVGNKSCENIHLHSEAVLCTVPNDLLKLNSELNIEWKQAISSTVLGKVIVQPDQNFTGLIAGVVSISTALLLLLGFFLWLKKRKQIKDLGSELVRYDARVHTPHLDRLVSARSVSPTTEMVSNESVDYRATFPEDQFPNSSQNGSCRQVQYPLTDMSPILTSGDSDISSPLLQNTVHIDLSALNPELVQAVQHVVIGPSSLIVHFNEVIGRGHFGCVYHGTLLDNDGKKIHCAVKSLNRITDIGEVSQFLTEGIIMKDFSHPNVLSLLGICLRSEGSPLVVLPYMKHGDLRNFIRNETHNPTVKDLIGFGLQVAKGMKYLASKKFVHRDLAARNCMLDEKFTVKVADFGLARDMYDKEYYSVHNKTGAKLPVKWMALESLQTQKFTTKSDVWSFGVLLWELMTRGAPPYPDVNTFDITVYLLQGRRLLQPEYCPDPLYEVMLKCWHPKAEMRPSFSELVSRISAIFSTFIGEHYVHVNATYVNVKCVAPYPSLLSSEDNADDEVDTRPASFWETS

Structure (SMILES)	KINOMEscan: MARK1 (panel of 442 kinases [1])	KINOMEscan: PIK3CA(H1047Y) (panel of 442 kinases [2])	KINOMEscan: INSR (panel of 442 kinases [3])	KINOMEscan: MET (panel of 442 kinases [4])
COc1cc(C(=O)N2CCC(N3CCN(C)CC3)CC2)ccc1Nc1ncc2c(n1)N(C1CCCC1)c1ccccc1C(=O)N2C [Compound 25, 11-cyclopentyl-2-((2-methoxy-4-(4-(4-methylpiperazin-1-yl)piperidine-1-carbonyl)phenyl)amino)-5-methyl-5H-benzo[e]pyrimido[5,4-b][1,4]diazepin-6(11H)-one]	99	100	88	97
CCOc1cc(C(=O)N2CCC(N3CCN(C)CC3)CC2)ccc1Nc1ncc2c(n1)N(C1CCCC1)c1ccccc1C(=O)N2C [Compound 26]	100	76	100	100
COc1cc(C(=O)N2CCC(N3CCN(C)CC3)CC2)ccc1Nc1ncc2c(n1)N1CCc3cccc(c31)C(=O)N2C [Compound 24]	83	68	78	
COc1cc(C(=O)N2CCC(N3CCN(C)CC3)CC2)ccc1Nc1ncc2c(n1)N(C)c1ccccc1C(=O)N2C [15 (LRRK2-IN-1)]	87	71	84	100
